Holding throughout (format): cell-based, mouse
In series [1] the test system is cultured primary hippocampal neurons from ASMko mice. Nature of the series: Sphingomyelin levels by enzymatic assay in cultured primary hippocampal neurons from ASMko mice. The text has this:
(§1) FIGS. 5A-5D show sphingomyelin and endocannabinoid levels in cultured primary hippocampal neurons and hippocampal tissue, respectively, from ASMko and wildtype mice.
Statistical significance Student's t-test, *P<0.05, **P<0.005, n=3 independent cultures.
Statistical significance Student's t-test, **P<0.005, n=3 independent cultures.
Anandamide (AEA) is the major endogenous CB1 ligand. We therefore tested whether increased levels of anandamide affected sphingomyelin levels in cultured primary hippocampal neurons from ASMko mice. Anandamide was increased in two ways: • 1. By incubating the neuronal cultures with exogenous anandamide; and • 2. By incubating the neuronal cultures with PF-04457845, which is an inhibitor of the anandamide hydrolytic enzyme FAAH. Inhibition of FAAH causes accumulation of anandamide by inhibiting FAAH-mediated hydrolyzation of anandamide.
The following experiments were performed in three independent cultures of hippocampal neurons derived from ASMko mice. Treatments were done at 11-13 days in vitro when these cells are considered mature and functional.
To set the optimal conditions for such hydrolysis in terms of concentration and time of incubation, anandamide was added to the culture medium of mature ASMko hippocampal neurons at 0, 5, 25, 50 and 100 μM for 30 minutes or 1 hour. […] The optimal conditions for SM degradation were in a range of concentration of 25-50 μM for 1 hour. […] We therefore decided to use 25 μM anandamide for 1-hour incubation time in our next experiments.
Similar to the anandamide dose/time response experiment above, we performed another dose response experiment using URB597 (URB), an inhibitor of the anandamide-hydrolyzing enzyme FAAH, to be used as reference for the other FAAH inhibitors. The experiments were done in the presence or absence of exogenous anandamide. URB was added to the culture medium of ASMko mature neurons at 0, 5, 25 and 50 μM for 1 hour with or without □□ μM anandamide.
We next compared URB efficacy to reduce SM levels with that of other FAAH inhibitors PF-04457845 (PF) and JNJ-1661010 (JNJ).

The subject of series [2] is wildtype cultured neurons. The experiment in a line: Sphingomyelin levels in wildtype cultured neurons. The note with it: wildtype (FIG. 5D).
Excerpt: as §1
It has been shown that mGluR activation promotes 2-AG synthesis and CB1 stimulation (Maccarrone et al., Nat Neurosci 2008). We therefore sought to determine whether activation of mGluR5 with the allosteric activator CDPPB might induce sphingomyelin breakdown in ASMko neurons. […] Thus, the effect of decreased CB1 expression might be further exacerbated by decrease in endogenous endocannabinoid signaling, at least via 2-AG.

Series [3] deals with permeabilized ASMko neurons. The experiment in a line: Lysenin staining of SM in intracellular compartments of permeabilized ASMko neurons. Particulars: 1 hour at 50 μM (FIG. 9). On the procedure: Statistical significance Student's t-test, *P<0.05, n=3 independent cultures.
To determine whether SM hydrolysis induced by FAAH inhibitors was taking place not only at the cell surface, but also in intracellular compartments, we performed staining with lysenin, a worm toxin that specifically binds to SM, in permeabilized ASMko neurons non-treated or treated with anandamide, URB, PF-04457845 or JNJ for 1 hour at 50 μM.

For series [4], the system named is ASMko cultured neurons. Nature of the series: TUNEL assay of neuronal death in ASMko cultured neurons. Particulars: 50 μM for 1 hour. On the procedure: FIG. 10B is a graph showing mean±SEM percentage of apoptotic cells, measured by TUNEL assay, with respect to the positive control in which the cells were treated with H202.
The percentage of dying neurons showing DNA fragmentation was 5-8% in the treated ASMko cultures similar to the non-treated ones.

The subject of series [5] is ASMko cultured neurons. Nature of the series: MAP2 immunofluorescence of dendrites in ASMko cultured neurons. Particulars: 50 μM for 1 hour.

For the compound `N#Cc1cccc(C(=O)Nc2cc(-c3ccccc3)nn2-c2ccccc2)c1` [CDPPB, 3-Cyano-N-(1,3-diphenyl-1H-pyrazol-5-yl)benzamide], the sphingomyelin levels entry was “significant decreases in sphingomyelin levels” in series [1] (15 μM, ASMko cultured neurons (FIG. 5D)) and “did not affect sphingomyelin levels” in series [2].

In the case of `Cl.Cl.O=C(/C=C/c1ccc(/C=C/C(=O)Nc2ccc(C3=NCCN3)cc2)cc1)Nc1ccc(C2=NCCN2)cc1` [GW4869], the “effect of co-incubation with the neutral sphingomyelinase inhibitor on the sphingomyelin reduction by anandamide or PF-04457845” value in series [1] (ASMko neurons, 1 hour (FIG. 5A)) is “prevented”.

Regarding `O=C(Nc1ccccc1)N1CCN(c2nc(-c3ccccc3)ns2)CC1` [JNJ-1661010], in series [1] (50 μM and 1 hour (FIG. 8)), the SM hydrolysis result is given as “promoted SM hydrolysis”. The “SM levels in intracellular compartments (lysenin staining)” value (from here on “SM levels in intracellular compartments”) in series [3] is on record as “variable tendency to SM reduction that was not statistically significant”. For the same compound, the “neuronal death as assessed by TUNEL” value in series [4] is reported as “did not induce neuronal death”. Also, the “morphology, length, appearance of dendrites (MAP2)” value (from here on “morphology, length, appearance”) in series [5] is listed as “did not alter the morphology, length or homogeneous appearance of dendrites”.

For `NC(=O)c1cccc(-c2cccc(OC(=O)NC3CCCCC3)c2)c1` [URB597], the “SM levels, dose response” value in series [1] (0, 5, 25 and 50 μM for 1 hour, without exogenous anandamide (FIG. 7)) is “dose dependent reduction of SM levels”. Moreover, in series [1] (50 μM and 1 hour (FIG. 8)), the SM hydrolysis result is recorded as “promoted SM hydrolysis”; the “efficacy to reduce SM levels compared among FAAH inhibitors” value was “most reliable and efficient”. For the same compound, the “SM levels in intracellular compartments” value in series [3] is “significantly reduced SM levels”. For the same compound, in series [4], the “neuronal death as assessed by TUNEL” value is given as “did not induce neuronal death”. Also, the “morphology, length, appearance” value in series [5] was “did not alter the morphology, length or homogeneous appearance of dendrites”.

Take `CCCCC/C=C\C/C=C\C/C=C\C/C=C\CCCC(=O)NCCO` [anandamide]: the “SM hydrolysis, dose and time response” value in series [1] (0, 5, 25, 50 and 100 μM for 30 minutes or 1 hour (FIG. 6)) was “induced SM hydrolysis in a dose and time dependent manner”. Further, in series [1] (100 μM), the “SM reduction at very high concentration” value was “SM reduction was prevented”. In series [1] (1 hour), the “optimal concentration for SM degradation” value was in the range of 25 to 50 µM. The sphingomyelin levels entry in series [1] (ASMko neurons, 1 hour incubation (FIG. 5A)) is recorded as “reduced sphingomyelin levels”. Besides, the “effect of addition of exogenous anandamide on SM hydrolysis by FAAH inhibitors” value in series [1] (FAAH inhibitors at 50 μM, 1 hour) is given as “did not further enhance SM hydrolysis”. Further, in series [1] (URB concentrations other than the lowest, 1 hour), the “SM reduction with URB and anandamide versus URB alone” value is “SM reduction was similar”. The “effect of anandamide addition on SM reduction by URB” value in series [1] (lowest URB concentration, 1 hour) was “synergized the action of URB”. Moreover, the “SM levels in intracellular compartments” value in series [3] is listed as “variable tendency to SM reduction that was not statistically significant”. In addition, the “neuronal death as assessed by TUNEL” value in series [4] is on record as “did not induce neuronal death”. In series [5], the “morphology, length, appearance” value is “did not alter the morphology, length or homogeneous appearance of dendrites”.

The values are drawn from patent US12485117B2, “Compositions and methods for activating signaling through the CB1 cannabinoid receptor for treating and preventing diseases and disorders characterized by abnormal cellular accumulation of sphingolipids such as sphingomyelin” (Wylder Nation Foundation, priority 2018, dated 2025).
